In patent US20150010639A1, “PHAR[…] DIETARY COMPOSITIONS BASED ON SHORT-CHAIN FATTY ACIDS AND COMPLEX SUGARS, FOR INTESTINAL DISORDERS” (COSMO TECHNOLOGIES LTD., priority 2004, published 2015):

Tested on: inflammatory bowel disease (IBD), symptom of diarrhoea
Test: clinical study in patients with inflammatory bowel disease (IBD): symptom of diarrhoea on subjective 5-point scale
Assay type: in vivo, adult patients
Conditions: n = 6 IBD patients; for Diarrhoea % improvement relative to the base time / Diarrhoea mean intensity, final: after 4 weeks of daily oral treatment, 250 mg of each active; for Diarrhoea mean intensity, final / Diarrhoea mean intensity, base: scale 0 to 4; for Diarrhoea mean intensity, base: base time before treatment
Procedure: The clinical study described below was performed with the tablets thus produced.
The study was performed on 18 adult patients of both sexes, divided into three homogeneous groups each of 6 patients, who were suffering from inflammatory bowel disease (IBD) and were treated as follows:
Group 1: 250 mg butyric acid
Group 3: 250 mg butyric acid+250 mg inulin
The active ingredients were transported in tablets which were indistinguishable in shape, size, weight and colour.
The treatments were administered orally daily before the main meal for a period of 4 weeks.
Before the start of the treatment (base time) and then upon completion of the 4 weeks of treatment, each patient was assessed for the presence of the symptom of diarrhoea.
This symptom was quantified, according to its intensity, on a subjective 5-point scale graduated from 0 (absence of indisposition) to 4 (indisposition of considerable gravity). The mean intensity at the base time and at the end of the period of treatment and the percentage of improvement relative to the base time were calculated for this symptom.

Row | Compound | Diarrhoea % improvement relative to the base time [%] | Diarrhoea mean intensity, final | Diarrhoea mean intensity, base
1 | CCCC(=O)O [butyric acid] | 44 | 1.5 | 2.7
2 | inulin | 27 | 2.1 | 2.9
